Assays:
[1] = target: T1, UL80.5 gene product/MCP interaction (Human cytomegalovirus, UniProt P16729); assay: competitive binding assay (ELISA): inhibition of UL80.5 gene product/MCP interaction; parameters: species or system CMV; conditions: 0.1 μg of UL80.5 peptide; compound 0.4 to 50 μM; average of six independent experiments (FIG. 3); read-out: average IC50 (concentration at which binding is reduced by 50%)
T1 construct: Recombinant baculovirus Autographa californiica nuclear polyhedrosis virus expressing full-length CMV MCP; made in house; host or cells: Sf9 insect cells infected with recombinant baculovirus; crude clarified supernatant used for coating
Experimental: Inhibitor activity was detected using a competitive binding assay. Scaffolding polypeptide and the compound to be tested are added sequentially or simultaneously to a microtiter plate precoated with full-length MCP. A primary antibody specific for the scaffolding polypeptide is then added, followed by a labeled secondary antibody directed against the primary antibody, and signal from the label measured. If the compound is unable to compete for binding, then the peptide binds to MCP and a signal is detected. […] In all assays a background control is included in which no peptide is added, but all other reagents are identical. In addition, a set of samples in which no compound is added is also included. This value is set at 100% and the percent inhibition is calculated relative to this number. […]
In order to determine if potential inhibitors of UL80.5 gene product/MCP interaction could be detected with this assay, compounds were assayed for activity.
In order to assay for inhibitors in a high throughput manner, the ELISA assay described above was modified. […] The plates were washed 6 times, and 50 μl of Wallac enhancement solution (Wallac; Gaithersburg, Md.) added, and the plate shaken for 10 minutes, before being read on a Wallac VICTOR microtiter plate reader (Wallac; Gaithersburg, Md.).

[2] = target: MCP protein (Human cytomegalovirus, UniProt P16729); conditions: increasing concentrations of peptide (0.1 to 10 μg), FIG. 2
Experimental: To investigate the interaction between the UL80.5 peptide and MCP, an ELISA assay was developed. For this purpose, a 96 well microtiter plate (Nunc—Immuno Maxisorp) was coated with 100 μl per well of a 1/50 dilution (in carbonate buffer: 40 mM NaCO3, 36 mM NaHCO3, 3mM Na Azide pH 9.6) of recombinant baculovirus supernatant containing MCP (prepared as described above). The plate was incubated at 37° C. for 2 hours. The plate was then washed 4-5 times in 200 μl per well of PBS (1.37 M NaCl, 80 mM Na2HPO4, 26.8 KCl, 14.7 mM KH2PO4, pH 7.0) containing 0.2 % Triton X-100, followed by incubation with 0.1 μg of UL80.5 peptide (SEQ ID NO:3) diluted in carbonate buffer for 1 hour at 37° C. The plate was then washed to remove any unbound peptide, and subsequent nonspecific binding blocked by the addition of 200 μl of 1% casein block (Pierce; Rockford, Ill.) 3 times for 30 seconds each at room temperature. The plate was washed as before, and 200 μl of a primary antipeptide antibody (prepared as described above) diluted 1/5000 in wash buffer (PBS containing 0.2% Triton X-100) was added and incubated for 1 hour at room temperature. […] Following a 30 minute room temperature incubation in the dark, the plate was read at 450 nm on a microtiter plate reader. […]

Compound | IC50 [1] [µM] | concentration of peptide at which 50% binding to MCP occurred [2] [µg]
NCCc1c[nH]c2ccc(-c3ccc4ccccc4c3)cc12 [Target compound 6] | 4.2 | –
NH2-Ala-Ser-Gln-Ser-Pro-Pro-Lys-Asp-Met-Val-Asp-Leu-Asn-Arg-Arg-Ile-Phe-Val-Ala-Ala-Leu-Asn-Lys-Leu-Glu-COOH [UL80.5 peptide] | – | 0.3

From patent US20020004198A1, “Novel anti-infectives” (priority 1998, published 2002)
